In patent publication US7985744B2, “Vitamin D derivatives” (Chugai Seiyaku Kabushiki Kaisha, priority 2000, dated 2011):

How the values were obtained:
[1] = Blood ionized calcium level in mice after percutaneous administration (Test Examples 1 and 3); type: in vivo; conditions: Balb/c mice, percutaneous single application, dose 1000 μg/kg, blood taken two days after administration
Description: Eight week old male Balb/c mice were percutaneously administered with active vitamin D3 (1α,25 (OH)2D3, 125 μg/ml in ethanol) or Compounds 1 to 5 (vitamin D derivatives prepared in the above Examples, 500 μg/ml in ethanol) or ethanol alone (as a control). These samples were applied once to the dorsal skin (about 1.5×2.0 cm^2) of the mice in a volume of 2 ml/kg. Each of the mice was then fitted with a necklace harness in order to avoid oral ingestion. On the next day, the administered sites were cleaned and the necklace harnesses were removed. Two days after administration, blood was taken from each mouse and assayed for ionized calcium level by the ion selective electrode method. The assay was performed in groups of 3 mice. […] Ionized calcium levels in the table are expressed as mean values.
The same procedures as shown in Test Example 1 were repeated to assay blood ionized calcium levels in mice, except that Compounds 6 to 12 were used as vitamin D derivatives. […] Ionized calcium levels in the table are expressed as mean values.

[2] = test system: Keratinocytes from adult human skin; test: Growth inhibition against keratinocytes, [3H]thymidine incorporation (Test Example 4); type: cell-based; conditions: relative inhibition = IC50 of active vitamin D3 / IC50 of test compound
Description: Keratinocytes from adult human skin (Clonetics) were seeded in 96-well plates (COSTAR 3595) at a cell density of 1×10^3/well. The wells were then supplemented with the given concentrations of active vitamin D3 (1α,25 (OH)2D3) or Compounds 6 to 12, followed by incubation in KGM-2 medium at a cell density of 1×10^3 cells/200 μl/well for 3 days at 37° C. in 5% CO2 and 95% air. [^3H]Thymidine was added to each well (7.4 kBq/well) and the plates were further incubated for 1 day. After removal of the medium, each well was treated with 0.05% trypsin/0.53 mM EDTA to strip the cells. The amount of [^3H]thymidine incorporated into the cells was determined with a liquid scintillation counter (1450 MicroBeta, Wallac). […] Growth inhibition against keratinocytes in the table was expressed as a relative value of each compound compared to active vitamin D3: Relative inhibition=(IC50 (mol/l) of active vitamin D3)/(IC50 (mol/l) of test compound).

[3] = test system: Keratinocytes from human neonatal foreskin; test: Growth inhibition against human keratinocytes, [3H]thymidine uptake (Test Example 2); type: cell-based; conditions: relative inhibition = IC50 of active vitamin D3 / IC50 of each compound
Description: Keratinocytes from human neonatal foreskin (Clonetics) were seeded in 96-well plates (COSTAR 3595) at a cell density of 2×10^3/well. The wells were then supplemented with the given concentrations of active vitamin D3 (1α,25 (OH)2D3) or Compounds 1 to 5, followed by incubation in KGM-2 medium at a cell density of 2×10^3 cells/200 μl/well for 3 days at 37° C. in 5% CO2 and 95% air. [^3H]Thymidine was added to each well (7.4 kBq/well) and the plates were further incubated for 1 day. Each well was washed once with calcium- and magnesium-free phosphate buffer (Dulbecco's PBS(−), Nissui, code 05913, pH 7.3-7.65) and then treated with 0.25% trypsin to strip the cells. The [^3H]thymidine uptake of the cells was determined by a liquid scintillation counter (1450 MicroBeta, Wallac). […] Growth inhibition against human keratinocytes in the table was expressed as a relative value of each compound compared to active vitamin D3: Relative inhibition=(IC50 (mol/l) of active vitamin D3)/(IC50 (mol/l) of each compound).

Row | Compound | Blood ionized calcium level ([1]; Test Example 3, mean values) [mmol/L] | Blood ionized calcium level ([1]; Test Example 1, mean of 3 mice) [mmol/L] | Growth inhibition against human keratinocytes (relative value) [2] | Growth inhibition against human keratinocytes (relative value) [3]
1 | 1α,3β-dihydroxy-20(S)-(N-tert-butyl-N-methylaminocarbonylmethoxy)-9,10-secopregna-5,7,10(19),16-tetraene [Compound 2] | – | 2.27 | – | 5.9
2 | 1α,3β-dihydroxy-20(S)-(N-tert-butylaminocarbonylmethoxy)-9,10-secopregna-5,7,10(19),16-tetraene [Compound 4] | – | 2.16 | – | 7.0
3 | 1α,25(OH)2D3 | – | – | 1.0 | 1.0
4 | 20(S)-(tert-butoxycarbonylmethoxy)-1α,3β-dihydroxy-9,10-secopregna-5,7,10(19),16-tetraene [Compound 1] | – | 1.65 | – | 2.0
5 | C=C1/C(=C\C=C2/CCC[C@]3(C)C([C@H](C)OCCC(=O)OC(C)(C)C)=CC[C@@H]23)C[C@@H](O)C[C@@H]1O [Compound 3, 1α,3β-dihydroxy-20(S)-(tert-butoxycarbonylethoxy)-9,10-secopregna-5,7,10(19),16-tetraene] | – | – | – | 0.5
6 | C=C1C(=CC=C2CCCC3(C)C(C(C)OCC(=O)OC(C)C)=CCC23)CC(O)CC1O [Compound 5, 1α,3β-dihydroxy-20(S)-(isopropoxycarbonylmethoxy)-9,10-secopregna-5,7,10(19),16-tetraene] | – | 1.35 | – | 0.3
7 | C=C1/C(=C\C=C2/CCC[C@]3(C)C([C@H](C)OCC(=O)OC(C)(CC)CC)=CC[C@@H]23)C[C@@H](O)C[C@@H]1O [Compound 6, 1α,3β-dihydroxy-20(S)-(1-ethyl-1-methylpropoxycarbonylmethoxy)-9,10-secopregna-5,7,10(19),16-tetraene] | 1.57 | – | 12.0 | –
8 | C=C1C(=CC=C2CCCC3(C)C(C(C)OCC(=O)OC(C)(C)CCC)=CCC23)CC(O)CC1O [Compound 8, 1α,3β-dihydroxy-20(S)-(1,1-dimethylbutoxycarbonylmethoxy)-9,10-secopregna-5,7,10(19),16-tetraene] | 1.39 | – | 2.5 | –

Continued, in another order:

Row | Blood ionized calcium level ([1]; Test Example 3, mean values) [mmol/L] | Blood ionized calcium level ([1]; Test Example 1, mean of 3 mice) [mmol/L] | Compound | Growth inhibition against human keratinocytes (relative value) [2] | Growth inhibition against human keratinocytes (relative value) [3]
9 | 1.43 | – | 1α,3β-dihydroxy-20(S)-(1,1-dimethylhexyloxycarbonylmethoxy)-9,10-secopregna-5,7,10(19),16-tetraene [Compound 10] | 1.6 | –
10 | 1.28 | – | 1α,3β-dihydroxy-20(S)-(1-isopropyl-2-methylpropoxycarbonylmethoxy)-9,10-secopregna-5,7,10(19),16-tetraene [Compound 7] | 0.4 | –
11 | 1.55 | – | C=C1C(=CC=C2CCCC3(C)C2CCC3C(C)OCC(=O)OC(C)(CC)CC)CC(O)CC1O [Compound 9, 1α,3β-dihydroxy-20(S)-(1-ethyl-1-methylpropoxycarbonylmethoxy)-9,10-secopregna-5,7,10(19)-triene] | 0.7 | –
12 | 1.42 | – | C=C1C(=CC=C2CCCC3(C)C(C(C)OCCC(=O)OC(C)(CC)CC)=CCC23)CC(O)CC1O [Compound 11, 1α,3β-dihydroxy-20(S)-{2-(1-ethyl-1-methylpropoxycarbonyl)ethoxy}-9,10-secopregna-5,7,10(19),16-tetraene] | 0.4 | –
13 | 1.58 | – | C=C1/C(=C\C=C2/CCC[C@]3(C)C([C@H](C)OCC(=O)NCC(F)(F)C(F)(F)F)=CC[C@@H]23)C[C@@H](O)C[C@@H]1O [Compound 12, {(1α,3β-dihydroxy-9,10-secopregna-5,7,10(19),16-tetraen-20(S)-yl)oxy}-N-(2,2,3,3,3-pentafluoropropyl)acetamide] | 8.3 | –
